Laboratory results taken from patent publication US20090325877A1, “Combination Product of Receptor Tyrosine Kinase Inhibitor and Fatty Acid Synthase Inhibitor for Treating Cancer” (Wyeth, priority 2008, published 2009).
Values after ≈ are worked out from the molar mass of the structure shown. “Also recorded” adds a separate entry of the source.

Experiments:
FASN mRNA = FASN mRNA expression by qRT-PCR in A2780 cells; assay type: cell-based, human
Excerpt: (§1) RNA was extracted from the cells using TRI-REAGENT™ (Molecular Research Center, Cincinnati, Ohio) and subjected to reverse transcription—polymerase chain reaction (“RT-PCR”) using the TITAN ONE TUBE RT-PCR KIT™ system (Hoffmann-La Roche). Primers were: EGFR: 5′-[…]-3′ (SEQ ID NO:1) (forward, E1S) 5′-[…]-3′ (SEQ ID NO:2) (reverse, E1A); ErbB-2: 5′-[…]-3′ (SEQ ID NO:3) (forward, E2S2), 5′-[…]-3′ (SEQ ID NO:4) (reverse, E2A2); GAPDH: 5′-[…]-3′ (SEQ ID NO:5) (forward, GAPDH3S), 5′-[…]-3′ (SEQ ID NO:6) (reverse, GAPDH3A). Conditions for reverse transcription and amplification of the EGFR coding sequence were: 50° C., 30 minutes; 94° C., 2 minutes; 10 cycles (94° C., 30 seconds; 64.9° C., 30 seconds; 68° C., 90 seconds); 30 cycles (94° C., 30 seconds; 64.9° C., 30 seconds; 68° C., 90 seconds +5 seconds autoextension) and 68° C., 7 minutes. Conditions for ErbB2 and GAPDH were: 50° C., 30 minutes; 94° C., 2 minutes; 10 cycles (94° C., 30 seconds; 51° C., 30 seconds; 68° C., 45 seconds); 25 cycles (94° C., 30 seconds; 51° C., 30 seconds; 68° C., 45 seconds +5 seconds autoextension) and 68° C., 7 minutes. DNA products had the following sizes: EGFR: 1452 bp, ErbB2: 900 bp, GAPDH: 488 bp. Fragments were electrophoresed and stained with ethidium bromide.
(§2) Quantitative RT-PCR (“qRT-PCR”) was performed in the ABI PRISM 7000™ Sequence Detector (Applied Biosystems, Foster City, Calif.) using human EGFR, ErbB2, and FASN TaqMan® Gene Expression Assay systems (Applied Biosystems; Assay IDs: Hs00193306_m1, Hs00170433_m1, Hs00188012_m1) according to the manufacturer's instructions. β-actin and GAPDH (VIC™ and FAM labeled pre-developed TaqMan® Assay reagents, Applied Biosystems) were used as endogenous controls. EGFR, ErbB2, and FASN mRNA expression were calculated as described previously (Grunt, ibid).

EGFR mRNA = EGFR mRNA by qRT-PCR in SKBR3 breast cancer cells; assay type: cell-based; details: Homo sapiens, SK-BR-3, read-out: IC50, down-regulation of EGFR mRNA
Excerpt: (§3) RNA was extracted from the cells using TRI-REAGENT™ (Molecular Research Center, Cincinnati, Ohio) and subjected to reverse transcription—polymerase chain reaction (“RT-PCR”) using the TITAN ONE TUBE RT-PCR KIT™ system (Hoffmann-La Roche). Primers were: EGFR: 5′-[…]-3′ (SEQ ID NO:1) (forward, E1S) 5′-[…]-3′ (SEQ ID NO:2) (reverse, E1A); ErbB-2: 5′-[…]-3′ (SEQ ID NO:3) (forward, E2S2), 5′-[…]-3′ (SEQ ID NO:4) (reverse, E2A2); GAPDH: 5′-[…]-3′ (SEQ ID NO:5) (forward, GAPDH3S), 5′-[…]-3′ (SEQ ID NO:6) (reverse, GAPDH3A). Conditions for reverse transcription and amplification of the EGFR coding sequence were: 50° C., 30 minutes; 94° C., 2 minutes; 10 cycles (94° C., 30 seconds; 64.9° C., 30 seconds; 68° C., 90 seconds); 30 cycles (94° C., 30 seconds; 64.9° C., 30 seconds; 68° C., 90 seconds +5 seconds autoextension) and 68° C., 7 minutes. […]
as §2

ERK1/2 = ERK1/2 phosphorylation and expression by Western blotting in A2780 and SKOV3 cells; assay type: cell-based
Procedure: (§4) Cells plated in culture media containing 5% fetal calf serum at a density of 2.6×10^5 (SKOV3) or 6×10^5 (A2780) in 60 mm dishes (Corning, Corning, N.Y.) were treated with FASN inhibitor C75, with small-molecule ErbB RTK inhibitors (RTKIs), with the MEK1/2 antagonist U0126 or with the PI3K inhibitor LY294002 for the indicated times and at various concentrations. In some experiments cells were stimulated for 5 or 10 min with 100 ng/ml EGF (Sigma) before lysis in RIPA buffer (Grunt et al., Biochem Biophys Res Commun 329:1253-1259, 2005). Proteins (20 μg/lane) were subjected to SDS-PAGE, blotted onto PVDF membranes and immunostained (see Grunt, ibid) using the following antibodies: 2 μg/ml goat anti-pEGFR(Tyr1173) (sc-12351), 1 μg/ml rabbit anti-ErbB2 (C-18) (sc-284), 1 μg/ml rabbit anti-pErbB2(Tyr1248) (sc-12352-R) (all from Santa Cruz Biotechnology Inc., Santa Cruz, Calif.), rabbit anti-EGFR 1:1,000 (2232), rabbit anti-AKT 1:1,000 (9272), rabbit anti-pAKT(Ser473) 1:1,000 (9271), rabbit anti-pAKT(Thr308) 1:1,000 (9275), rabbit anti-pERK1/2(Thr202/Tyr204) 1:1,000 (9101) (all from Cell Signaling Technology), rabbit anti-ERK1/2 1:3,000 (06-182, Upstate Biotechnology Inc., Lake Placid, N.Y.), 0.5 μg/ml mouse monoclonal anti-FASN (610963, BD Biosciences, San Jose, Calif.), or 0.67 μg/ml goat anti-human actin (1-19, sc-1616, Santa Cruz Biotechnology). […]

EGFR protein = EGFR protein and tyrosine phosphorylation by Western blot in A2780 cells; assay type: cell-based
ErbB2 mRNA [1] = experiment: ErbB2 mRNA by RT-PCR and qRT-PCR in A2780 cells; assay type: cell-based, human
Excerpt: as §1, §2

ErbB2 mRNA [2] = experiment: ErbB2 mRNA by qRT-PCR in SKBR3 breast cancer cells; assay type: cell-based, human
Excerpt: as §3, §2

[3] = test system: SKOV3 ovarian cancer cells; experiment: Formazan dye (MTT) in-vitro cell growth assay, SKOV3; assay type: cell-based
Procedure: Cells were plated at 0.5−5×10^3/well in 96-well plates. After adhesion, media ±drugs alone or in combination were added. Cell numbers were estimated after 3-5 days by using a colorimetric formazan dye assay (Biomedica, Vienna, Austria). […] Statistical analysis of data from drug combination treatment experiments was performed using one-factorial ANOVA followed by Scheffe-test.
Yellow MTT (3-(4,5-Dimethylthiazol-2-yl)-2,5-diphenyltetrazolium bromide, a tetrazole) is reduced to purple formazan in the mitochondria of living cells (see Mosmann, T., J. Immunol. Methods, 65(1-2): 55-63, 1983).

AKT = AKT phosphorylation and expression by Western blotting in A2780 and SKOV3 cells; assay type: cell-based
Procedure: as §4

IC50 (FASN mRNA; Homo sapiens, 72 h, after 3 days, qRT-PCR, read-out: IC50, down-regulation of FASN mRNA expression): 5.25 µg/mL (≈ 20.6 µM)
IC50 (EGFR mRNA): 7.5 µg/mL (≈ 29.5 µM)
IC50 (EGFR protein; Homo sapiens, Western blot): 3.6 µg/mL (≈ 14.2 µM)
Compound: C=C1C(=O)OC(CCCCCCCC)C1C(=O)O (centres unmarked) [C75, tetrahydro-3-methylene-2-oxo-5-n-octyl-4-furancarboxylic acid]
IT50 (time of exposure after which a 50% inhibition is obtained), FASN mRNA (FASN mRNA; at 7 μg/ml): 21.5 h
FASN mRNA expression, effect in words (FASN mRNA; b102: within three days, pelitinib at doses as low as 3 μM): shut-down
pERK1/2 levels, effect in words (ERK1/2): dose-dependently increase
total ERK1/2 levels, effect in words (ERK1/2): concurrently decline
EGFR total protein, effect in words (EGFR protein): slowly and concordantly reduces
EGFR tyrosine phosphorylation (activity), effect in words (EGFR protein): slowly and concordantly reduces
IT50, EGFR phosphorylation (EGFR protein): 20 h
IT50, EGFR protein (EGFR protein): 29 h
ErbB2 mRNA, effect in words (ErbB2 mRNA [1]): not affected; also recorded: failed to diminish
ErbB2 mRNA, effect in words (ErbB2 mRNA [2]): dose-dependent decline; also recorded: dose-dependent down-regulation
inhibition at 10 µg/mL ([3]; Homo sapiens, SK-OV-3, 10 μg/ml C75 on its own): 50 to 55%
in vitro growth inhibition (in words) ([3]; MTT assay, single drug): growth inhibitory activity
phosphorylation of AKT (Ser473, Thr308), effect in words (AKT): dose-dependently inhibits
total AKT protein level, effect in words (AKT; C75 at high concentrations): slightly affects
